Columns and labels:
Assay type in all cases: in vivo
rice = assay: Test Example 4: effect on crop by soil treatment (symbol b); conditions: application herbicide amount 320 g/ha
Procedure, shortened: (§1)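 Plants are raised in a greenhouse (25° C. to 30° C.) from spot-sown seed, which sits under about 1.5 cm of sterilized diluvial soil in a box shared with weed species.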

[1] = tested on: Echinochloa crus-galli var. crus-galli; assay: Test Example 5: herbicidal effect by foliage application, plastic box (symbol H); conditions: 320 g/ha, 3 weeks after application
Procedure, shortened: (§2)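 Post-emergence spray; diluvial soil (sterilized), ~1.5 cm seed cover; greenhouse 25–30° C; 14-day-old plants; water-diluted emulsion at predetermined dose; visual score at 3 wk post-treatment.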

corn = assay: Test Example 5: effect on crop by foliage application, plastic box (symbol c); conditions: 320 g/ha, 3 weeks after application
Procedure, shortened: (§3)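 Box culture: sterile diluvial soil, seeds spot-sown, ~1.5 cm cover, raised under glass at 25–30° C.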

soybean = assay: Test Example 4: effect on crop by soil treatment (symbol d); conditions: application herbicide amount 320 g/ha
Procedure, shortened: as §1

Avena fatua [2] = assay: Test Example 5: herbicidal effect by foliage application, plastic box (symbol I); conditions: 320 g/ha, 3 weeks after application
Procedure, shortened: as §2

Avena fatua [3] = assay: Test Example 4: herbicidal effect by soil treatment (symbol I); conditions: application herbicide amount 320 g/ha
Procedure, shortened: (§4)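 Seeds were sown in sterilized diluvial soil, covered with about 1.5 cm of soil, and the soil surface was sprayed with a water-diluted emulsion of the compound at a predetermined rate. Plants grew in a greenhouse at 25° C. to 30° C.; effects were scored visually 3 weeks after application.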

Abutilon theophrasti = assay: Test Example 4: herbicidal effect by soil treatment (symbol M); conditions: application herbicide amount 320 g/ha
Procedure, shortened: as §4

[4] = tested on: Echinochloa oryzacola Vasing.; assay: Test Example 1: herbicidal activity, application before weed generation in submerged conditions (symbol A); conditions: application herbicide amount 320 g/ha
Procedure, shortened: (§5)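 Weed control was rated three weeks after treatment on a 0–5 scale, from 5% or lower up to 90% or more. Pre-emergence water-surface application of diluted emulsion at a predetermined rate was made on the day of sowing, in flooded (4 cm water) pots containing rice seedlings, kept at 25–30 °C under glass.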

Setaria viridis = assay: Test Example 5: herbicidal effect by foliage application, plastic box (symbol G); conditions: 320 g/ha, 3 weeks after application
Procedure, shortened: as §2

rapeseed = assay: Test Example 5: effect on crop by foliage application, plastic box (symbol g); conditions: 320 g/ha, 3 weeks after application
Procedure, shortened: as §3

[5] = tested on: Echinochloa crus-galli var. crus-galli; assay: Test Example 4: herbicidal effect by soil treatment (symbol H); conditions: application herbicide amount 320 g/ha
Procedure, shortened: as §4

Apera spica-venti [6] = assay: Test Example 5: herbicidal effect by foliage application, plastic box (symbol L); conditions: 320 g/ha, 3 weeks after application
Procedure, shortened: as §2

Monochoria vaginalis [7] = assay: Test Example 1: herbicidal activity, application before weed generation in submerged conditions (symbol C); conditions: application herbicide amount 320 g/ha
Procedure, shortened: as §5

Apera spica-venti [8] = assay: Test Example 4: herbicidal effect by soil treatment (symbol L); conditions: application herbicide amount 320 g/ha
Procedure, shortened: as §4

Monochoria vaginalis [9] = assay: Test Example 2: herbicidal activity, application during weed generation in submerged conditions (symbol C); conditions: Table 23; application herbicide amount 320 g/ha; grade 0-5 by criteria of Test Example 1
Procedure, shortened: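 Steps: fill pots with alluvial soil; add water to 4 cm depth; co-sow the three weeds; grow at 25° C. to 30° C. under glass; at 1–2 leaves, dose the floodwater with diluted emulsion; rate damage visually after 3 weeks.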

beet = assay: Test Example 4: effect on crop by soil treatment (symbol f); conditions: application herbicide amount 320 g/ha
Procedure, shortened: as §1

| Structure (SMILES) | H: Echinochloa crus-galli var. crus-galli, herbicidal effect (criteria of Test Example 1) [1] | c: corn, effect on crop (criteria of Test Example 1) (corn) | I: Avena fatua, herbicidal effect (criteria of Test Example 1) (Avena fatua [2]) | Herbicidal effect grade, A: Echinochloa oryzacola Vasing. [4] | G: Setaria viridis, herbicidal effect (criteria of Test Example 1) (Setaria viridis) | g: rapeseed, effect on crop (criteria of Test Example 1) (rapeseed) | L: Apera spica-venti, herbicidal effect (criteria of Test Example 1) (Apera spica-venti [6]) | Herbicidal effect grade, C: Monochoria vaginalis (Monochoria vaginalis [7]) | Herbicidal effect grade, C: Monochoria vaginalis (Monochoria vaginalis [9]) | Effect on crop grade, b: directly sowed rice plant (rice) | Effect on crop grade, d: soybean (soybean) | Herbicidal effect grade, I: Avena fatua (Avena fatua [3]) | Herbicidal effect grade, M: Abutilon theophrasti (Abutilon theophrasti) | Herbicidal effect grade, H: Echinochloa crus-galli var. crus-galli [5] | Herbicidal effect grade, L: Apera spica-venti (Apera spica-venti [8]) | Effect on crop grade, f: beet (beet) | other results |
| --- | --- | --- | --- | --- | --- | --- | --- | --- | --- | --- | --- | --- | --- | --- | --- | --- | --- |
| CON=C(C)CC1CC(OC(=O)COc2ccccc2)=C(c2c(C)cc(-c3ccc(Cl)cc3)cc2OC)C1=O (stereo not shown) [6-079] | 5 (Herbicidal ratio of 90% or more (almost completely withered)) | 5 (Herbicidal ratio of 90% or more (almost completely withered)) | 5 (Herbicidal ratio of 90% or more (almost completely withered)) | 4 (Herbicidal ratio of 70% or higher and lower than 90%) | 5 (Herbicidal ratio of 90% or more (almost completely withered)) | 4 (Herbicidal ratio of 70% or higher and lower than 90%) | 5 (Herbicidal ratio of 90% or more (almost completely withered)) | 2 (Herbicidal ratio of 20% or higher and lower than 40%) | 3 (Herbicidal ratio of 40% or higher and lower than 70%) | – | – | – | – | – | – | – | b: directly sowed rice plant, effect on crop grade (rice): 3 (Herbicidal ratio of 40% or higher and lower than 70%); d: soybean, effect on crop grade (soybean): 0 (Herbicidal ratio of 5% or lower (almost no effect)); I: Avena fatua, herbicidal effect grade (Avena fatua [3]): 0 (Herbicidal ratio of 5% or lower (almost no effect)); M: Abutilon theophrasti, herbicidal effect grade (Abutilon theophrasti): 1 (Herbicidal ratio of 5% or higher and lower than 20%); H: Echinochloa crus-galli var. crus-galli, herbicidal effect grade [5]: 5 (Herbicidal ratio of 90% or more (almost completely withered)); L: Apera spica-venti, herbicidal effect grade (Apera spica-venti [8]): 5 (Herbicidal ratio of 90% or more (almost completely withered)); f: beet, effect on crop grade (beet): 0 (Herbicidal ratio of 5% or lower (almost no effect)) |
| CON=C(C)CC1CC(OC(=O)COc2ccccc2)=C(c2c(C)cc(-c3ccccc3)cc2OC)C1=O (stereo not shown) [6-100] | 5 (Herbicidal ratio of 90% or more (almost completely withered)) | 5 (Herbicidal ratio of 90% or more (almost completely withered)) | 5 (Herbicidal ratio of 90% or more (almost completely withered)) | 5 (Herbicidal ratio of 90% or more (almost completely withered)) | 5 (Herbicidal ratio of 90% or more (almost completely withered)) | 5 (Herbicidal ratio of 90% or more (almost completely withered)) | 5 (Herbicidal ratio of 90% or more (almost completely withered)) | 5 (Herbicidal ratio of 90% or more (almost completely withered)) | 5 (Herbicidal ratio of 90% or more (almost completely withered)) | 5 (Herbicidal ratio of 90% or more (almost completely withered)) | 0 (Herbicidal ratio of 5% or lower (almost no effect)) | 5 (Herbicidal ratio of 90% or more (almost completely withered)) | 4 (Herbicidal ratio of 70% or higher and lower than 90%) | 5 (Herbicidal ratio of 90% or more (almost completely withered)) | 5 (Herbicidal ratio of 90% or more (almost completely withered)) | 0 (Herbicidal ratio of 5% or lower (almost no effect)) | – |
| CON=C(C)C(=NOC)C1CC(O)=C(c2c(C)cc(C)cc2C)C1=O (stereo not shown) [8-003] | – | – | – | 0 (Herbicidal ratio of 5% or lower (almost no effect)) | – | – | – | 0 (Herbicidal ratio of 5% or lower (almost no effect)) | 0 (Herbicidal ratio of 5% or lower (almost no effect)) | 0 (Herbicidal ratio of 5% or lower (almost no effect)) | 0 (Herbicidal ratio of 5% or lower (almost no effect)) | 0 (Herbicidal ratio of 5% or lower (almost no effect)) | 0 (Herbicidal ratio of 5% or lower (almost no effect)) | 0 (Herbicidal ratio of 5% or lower (almost no effect)) | 0 (Herbicidal ratio of 5% or lower (almost no effect)) | 0 (Herbicidal ratio of 5% or lower (almost no effect)) | H: Echinochloa crus-galli var. crus-galli, herbicidal effect grade [1]: 0 (Herbicidal ratio of 5% or lower (almost no effect)); c: corn, effect on crop grade (corn): 0 (Herbicidal ratio of 5% or lower (almost no effect)); I: Avena fatua, herbicidal effect grade (Avena fatua [2]): 0 (Herbicidal ratio of 5% or lower (almost no effect)); G: Setaria viridis, herbicidal effect grade (Setaria viridis): 0 (Herbicidal ratio of 5% or lower (almost no effect)); g: rapeseed, effect on crop grade (rapeseed): 0 (Herbicidal ratio of 5% or lower (almost no effect)); L: Apera spica-venti, herbicidal effect grade (Apera spica-venti [6]): 0 (Herbicidal ratio of 5% or lower (almost no effect)) |
| COc1cc(Br)cc(C)c1C1=C(O)CC(CC(C)=O)C1=O (stereo not shown) [7-027, 2-(4-bromo-2-methoxy-6-methylphenyl)-3-hydroxy-5-(2-oxopropyl)cyclopent-2-enone] | 5 (Herbicidal ratio of 90% or more (almost completely withered)) | 5 (Herbicidal ratio of 90% or more (almost completely withered)) | 5 (Herbicidal ratio of 90% or more (almost completely withered)) | 4 (Herbicidal ratio of 70% or higher and lower than 90%) | 5 (Herbicidal ratio of 90% or more (almost completely withered)) | 2 (Herbicidal ratio of 20% or higher and lower than 40%) | 5 (Herbicidal ratio of 90% or more (almost completely withered)) | 2 (Herbicidal ratio of 20% or higher and lower than 40%) | 2 (Herbicidal ratio of 20% or higher and lower than 40%) | 5 (Herbicidal ratio of 90% or more (almost completely withered)) | 0 (Herbicidal ratio of 5% or lower (almost no effect)) | 0 (Herbicidal ratio of 5% or lower (almost no effect)) | 0 (Herbicidal ratio of 5% or lower (almost no effect)) | 5 (Herbicidal ratio of 90% or more (almost completely withered)) | 5 (Herbicidal ratio of 90% or more (almost completely withered)) | 0 (Herbicidal ratio of 5% or lower (almost no effect)) | – |

— patent publication US11000033B2, “Ketone or oxime compound, and herbicide” (NISSAN CHEMICAL CORPORATION, priority 2014, dated 2021)
